Source: patent US20080207684A1, “Kinase inhibitors and methods for using the same” (Roche Palo Alto LLC, priority 2007, published 2008)

Target: T1, p38 MAP kinase (Homo sapiens, UniProt Q16539)
T1 construct: made in house; host or cells: E. coli (co-expressed with SEK-1 and MEKK)
Assay: p38 (MAP) kinase in vitro assay (transfer of γ-33P from ATP to Myelin Basic Protein)
Format: biochemical
Conditions: phosphorylated recombinant p38 MAP kinase, MBP substrate, γ-33P-ATP, 30° C.
Method: This example illustrates a p38 (MAP) kinase in vitro assay useful for evaluating the compounds of the invention.
The p38 MAP kinase inhibitory activity of compounds of this invention in vitro was determined by measuring the transfer of the γ-phosphate from γ-^33P-ATP by p-38 kinase to Myelin Basic Protein (MBP), using a minor modification of the method described in Ahn, et al., J. Biol. Chem. 266:4220-4227 (1991).
The phosphorylated form of the recombinant p38 MAP kinase was co-expressed with SEK-1 and MEKK in E. Coli (see, Khokhlatchev, et al., J. Biol. Chem. 272:11057-11062 (1997)) and then purified by affinity chromatography using a Nickel column.
The phosphorylated p38 MAP kinase was diluted in kinase buffer (20 mM 3-(N-morpholino)propanesulfonic acid, pH 7.2, 25 mM β-glycerol phosphate, 5 mM ethylene glycol-bis(beta-aminoethyl ether)-N,N,N′,N′-tetraacetic acid, 1 mM sodium ortho-vanadate, 1 mM dithiothreitol, 40 mM magnesium chloride). Test compound dissolved in DMSO or only DMSO (control) was added and the samples were incubated for 10 min at 30° C. The kinase reaction was initiated by the addition of a substrate cocktail containing MBP and γ-^33P-ATP. […] The phosphorylated MBP was then separated from the residual γ-^33P-ATP using a phosphocellulose membrane (Millipore, Bedfrod, Mass.) and quantitated using a scintillation counter (Packard, Meriden, Conn.).

T1 sequence (Q16539 whole entry): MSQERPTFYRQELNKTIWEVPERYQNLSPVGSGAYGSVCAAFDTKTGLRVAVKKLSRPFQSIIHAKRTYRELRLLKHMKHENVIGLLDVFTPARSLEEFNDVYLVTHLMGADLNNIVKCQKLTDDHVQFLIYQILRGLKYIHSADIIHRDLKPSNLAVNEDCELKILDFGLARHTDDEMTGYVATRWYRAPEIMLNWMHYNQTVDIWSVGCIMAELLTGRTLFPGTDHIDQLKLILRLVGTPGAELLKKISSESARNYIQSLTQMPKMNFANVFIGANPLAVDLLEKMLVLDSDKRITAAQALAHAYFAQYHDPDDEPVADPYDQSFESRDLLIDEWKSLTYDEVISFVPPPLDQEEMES

IC50: ~3 nM
SMILES: CNC(=O)c1ccc(C)c(-c2cc3[nH]nc(N4CCCCC4)c3n(C)c2=O)c1 [Compound 8, 4,N-Dimethyl-3-(4-methyl-5-oxo-3-piperidin-1-yl-4,5-dihydro-1H-pyrazolo[4,3-b]pyridin-6-yl)-benzamide]
